According to patent publication US11427591B2, “Kinase inhibitors” (priority 2018, dated 2022):
Read-outs that look alike come from different tables or passages of the source.

How the values were obtained:
[1] = test system: primary tumor cells freshly isolated from patient derived xenograft tumor model; experiment: Cholangiocarcinoma (bile duct cancer) tumor chemosensitivity assay (TCA), anti-proliferation; type: cell-based; conditions: for Max (%) / Min (%): inhibition rate
Description: Cholangiocarcinoma (Bile Duct Cancer)
All the compounds were tested starting from 30 μM, 3-fold serial dilution.
(§1) Add 195 μL of assay medium into each well of the V-bottom plate; then transfer 5 μL of the stock compound solution of each concentration from the stock plate (400× stock). Add 5 μL of DMSO into the Blank and Control wells. Pipette up and down to mix well. This V-plate is designated as the 10× concentrate compound plate.
For cell viability test, add compounds as below. Then incubate the plates at 37° C., 5% CO2, 95% air and 100% relative humidity for 3 days or 6 days. For day 0 plate, add 15 μL of the DMSO-medium into the Control wells. The final DMSO concentration was 0.25%. Proceed to cell viability assay. For TCA plates, add 15 μL of the compound-medium from the 10× concentrate compound plate into the cells in 96-well assay plate according to the plate map. Add 15 μL of the DMSO-medium into the Blank and Control wells. The final DMSO concentration was 0.25%.
The procedures were performed according to the Promega CellTiter-Glo Luminescent Cell Viability Assay Kit (Promega-G7573): Thaw the CellTiter-Glo buffer and equilibrate to room temperature prior to use; Equilibrate the lyophilized CellTiter-Glo Substrate to room temperature prior to use; Transfer the entire liquid volume of CellTiter-Glo Buffer into the amber bottle containing CellTiter-Glo Substrate to reconstitute the lyophilized enzyme/substrate mixture. This forms the CellTiter-Glo Reagent; Mix by gently vortexing to obtain a homogeneous solution; Equilibrate the plate and its contents to room temperature for approximately 30 minutes; Add 75 μL (equal to the half volume of culture medium present in each well) CellTiter-Glo Reagent in each well. Cover plates with aluminum foil to protect from light; Mix contents for 2 minutes on an orbital shaker to induce cell lysis; Allow the plate to incubate at room temperature for 10 minutes to stabilize luminescent signal; and Transfer the mixture of cell and CTG buffer to the detection 96 well plate and record luminescence on the 2104 EnVision plate reader. An ATP standard curve at the same time points is prepared.
Inhibition rate (IR) of the tested compounds was determined by the following formula: IR (%)=(1−(RLU compound−RLU blank)/(RLU control−RLU blank))*100%. The inhibitions of different dose of compound were calculated in Excel file, and then were used to plot inhibition curve and evaluate related parameters, such as Min, Max and IC50. The data were interpreted by GraphPad Prism software. […]

[2] = Cytotoxicity, CellTiter-Glo Luminescent Cell Viability Assay; conditions: human, LX-2 cells
Description: (§2) LX-2 cells were seeded into 96 well plates in the presence of compounds and allowed to grow for 72 hours before CellTiter-Glo® Luminescent Cell Viability Assay was carried out according the manufacturer's instruction.

[3] = test system: Human hepatic stellate cell LX-2; experiment: LX-2 Fibrosis Assay (inhibition of collagen production, TGF-b stimulated); type: cell-based
Description: Human hepatic stellate cell LX-2 were grown in DMEM (Invitrogen, 11960) supplied with 1% MEM Non-Essential Amino Acids (Invitrogen, 11140-050), 2% fetal bovine serum (Hyclone, SV30087.03), Penicillin (100 U/mL)-streptomycin (100 μg/mL) (Millipore, TMS-AB2-C) and 2 mM L-Glutamine (Invitrogen, 25030-001). After the cells grew in 12-well plates for 24 hours, the cell culture medium was changed to the same as above except using 0.4% fetal bovine serum. After 20 hour growth in the reduced serum medium, the cells were treated with indicated doses of compounds for 30 minutes. Subsequently, the cells were stimulated with 4 ng/mL TGF-b (R&D Systems, 240-B-002) for 48 hours. The cells were rinsed twice with DPBS before being harvested with 100 μL RIPA buffer (Sigma, R0278) supplemented with protease inhibitor cocktail (Roche, 04693132001) at 4° C. The total protein in each sample was quantified using BCA Protein Assay Kit (Pierce™, 23227) and equal amount of total protein of each sample was subject to Western blot analysis. Antibodies used were mouse anti-α-Actin (SPM332) (sc-365970), mouse anti-CTGF (E5) (sc-365970), and mouse anti-collagen α1 (3G3) (sc-293182), from Santa Cruz Biotechnologies; and mouse anti-GAPDH (6C5) (EMD Millipore, MAB374). […] As such, these compounds be used as inhibitors of fibrosis by inhibiting function of the discoidin domain receptor family.

[4] = test system: primary tumor cells freshly isolated from LU-01-0523 patient derived xenograft (PDX) tumor model; experiment: Tumor chemosensitivity assay (TCA), anti-proliferation, LU-01-0523; type: cell-based; conditions: for IC50: Homo sapiens
Description: (§3) Compound 1 is compared to Gemcitabine, which is a chemotherapy drug used in various types of cancers (e.g., breast cancer, ovarian cancer, non-small cell lung cancer, pancreatic cancer, and bladder cancer). The compounds, at 30 μM, 3 fold serial dilution, are tested in primary tumor cells freshly isolated from PC-07-0024 and LU-01-0523 patient derived xenograft (PDX) tumor model using tumor chemosensitivity assay (TCA).
as §1, with “The study was performed as follows. Add 195” for “Add 195”
(§4) For cell viability test, add compounds as below. Then incubate the plates at 37° C., 5% CO2, 95% air and 100% relative humidity for 3 days or 6 days. For day 0 plate, add 15 μL of the DMSO-medium into the Control wells. The final DMSO concentration was 0.25%. Proceed to cell viability assay. For TCA plates, add 15 μL of the compound-medium from the 10× concentrate compound plate into the cells in 96-well assay plate according to the plate map. Add 15 μL of the DMSO-medium into the Blank and Control wells. The final DMSO concentration was 0.25%. The assay is performed similar to the protocol of the bile duct cancer study provided above.

[5] = test system: primary tumor cells freshly isolated from PC-07-0024 patient derived xenograft (PDX) tumor model; experiment: Pancreatic cancer tumor chemosensitivity assay (TCA), anti-proliferation, PC-07-0024; type: cell-based; conditions: for IC50: Homo sapiens
Description: as §3
as §1, with “The study was performed as follows. Add 195” for “Add 195”
as §4

[6] = test system: LX-2 cells; experiment: Cytotoxicity, CellTiter-Glo Luminescent Cell Viability Assay
Description: as §2

[7] = 72 h, read-out: Relative IC50 (μM)
[8] = 144 h, read-out: Relative IC50 (μM)
[9] = 4 ng/mL TGF-b, 48 hours, read-out: Inhibition of Collagen Production in LX-2 Cells IC50

Cc1ccc2c(Nc3cccc(C(F)(F)F)c3)noc2c1C#Cc1cnc2cccnn12 [Compound 1, 7-(Imidazo[1,2-b]pyridazin-3-ylethynyl)-6-methyl-N-(3-(trifluoromethyl)phenyl)benzo[d]isoxazol-3-amine]
IC50 ([1]; Homo sapiens, 72 h): > 30 µM
IC50 ([1]; Homo sapiens, 144 h): > 30 µM
Max (%) ([1]; Day 3): 2.56%
Min (%) ([1]; Day 3): −8.75%
Max (%) ([1]; Day 6): 2.88%
Min (%) ([1]; Day 6): −27.04%
CC50 at 72 h [2]: 3 µM
IC50 ([3]; Homo sapiens, LX-2, 48 h, read-out: Inhibition of Collagen Production in LX-2 Cells IC50(nM)): 13 nM
IC50 [4, 7]: > 30 µM
IC50 [4, 8]: > 30 µM
Bottom (%) ([4]; LU-01-0523, Day 3): −5.49%
Top (%) ([4]; LU-01-0523, Day 3): 100.00%
Bottom (%) ([4]; LU-01-0523, Day 6): −16.14%
Top (%) ([4]; LU-01-0523, Day 6): 0.00%
IC50 [5, 7]: 5.7 µM
IC50 [5, 8]: 2.65 µM
Bottom (%) ([5]; PC-07-0024, Day 3): −11.36%
Top (%) ([5]; PC-07-0024, Day 3): 42.29%
Bottom (%) ([5]; PC-07-0024, Day 6): −26.68%
Top (%) ([5]; PC-07-0024, Day 6): 37.60%

Cc1ccc2c(Nc3cc(CN4CCOCC4)cc(C(F)(F)F)c3)noc2c1C#Cc1cnc2cccnn12 [Compound 111]
CC50 [6]: > 42.3 µM
IC50 [3, 9]: 1950 nM

Cc1ccc2c(Nc3cc(CNC4CC4)cc(C(F)(F)F)c3)noc2c1C#Cc1cnc2cccnn12 [Compound 112]
CC50 [6]: 1.36 µM
IC50 [3, 9]: 1660 nM

Cc1ccc2c(Nc3cc(CN4CCCC4)cc(C(F)(F)F)c3)noc2c1C#Cc1cnc2cccnn12 [Compound 113]
CC50 [6]: 4.25 µM
IC50 [3, 9]: 2580 nM

Cc1ccc2c(Nc3cccc(C(C)(C)C#N)c3)noc2c1C#Cc1cnc2cccnn12 [Compound 115]
CC50 [6]: 1.9 µM
IC50 [3, 9]: 502 nM

Cc1ccc2c(Nc3cc(CN4CCOCC4)cc(C(C)(C)C#N)c3)noc2c1C#Cc1cnc2cccnn12 [Compound 117]
CC50 [6]: > 57.2 µM
IC50 [3, 9]: 160 nM

Cc1ccc2c(Nc3cccc(OC(F)(F)F)c3)noc2c1C#Cc1cnc2cccnn12 [Compound 120]
CC50 [6]: 2.41 µM
IC50 [3, 9]: 2950 nM

Cc1ccc2c(Nc3cncc(C(F)(F)F)c3)noc2c1C#Cc1cnc2cccnn12 [Compound 121]
IC50 ([1]; Day 3, read-out: IC50): > 30 µM
IC50 ([1]; Day 6, read-out: IC50): 29.1 µM
Max (%) ([1]; Day 3): 49.93%
Min (%) ([1]; Day 3): −11.42%
Max (%) ([1]; Day 6): 51.14%
Min (%) ([1]; Day 6): −18.96%
CC50 [6]: > 40 µM
IC50 [3, 9]: 62 nM

Cc1nc(Nc2ncc(C(=O)Nc3c(C)cccc3Cl)s2)cc(N2CCN(CCO)CC2)n1 [Dasatinib, reference compound]
IC50 ([1]; Homo sapiens, 72 h, Day 3, read-out: IC50): 22.4 µM
IC50 ([1]; Homo sapiens, 144 h, Day 6, read-out: IC50): 15.2 µM
Max (%) ([1]; Day 3): 66.18%
Min (%) ([1]; Day 3): 8.00%
Max (%) ([1]; Day 6): 89.06%
Min (%) ([1]; Day 6): 14.03%

Nc1ccn([C@@H]2O[C@H](CO)[C@@H](O)C2(F)F)c(=O)n1 [Gemcitabine]
IC50 ([4]; 72 h, LU-01-0523, Day 3, read-out: Relative IC50): > 30 µM
IC50 ([4]; 144 h, LU-01-0523, Day 6, read-out: Relative IC50): 1.34 µM
Bottom (%) ([4]; LU-01-0523, Day 3): 4.79%
Top (%) ([4]; LU-01-0523, Day 3): 100.00%
Bottom (%) ([4]; LU-01-0523, Day 6): 0.00%
Top (%) ([4]; LU-01-0523, Day 6): 100.00%
IC50 ([5]; 72 h, PC-07-0024, Day 3, read-out: Relative IC50): 4 µM
IC50 ([5]; 144 h, PC-07-0024, Day 6, data exclsn, read-out: Relative IC50): 0.009 µM
IC50 ([5]; 144 h, PC-07-0024, Day 6, read-out: Relative IC50): 5.93 µM
Bottom (%) ([5]; PC-07-0024, Day 3): 10.21%
Top (%) ([5]; PC-07-0024, Day 3): 46.53%
Bottom (%) ([5]; PC-07-0024, Day 6): 23.38%
Top (%) ([5]; PC-07-0024, Day 6): 72.30%
Bottom (%) ([5]; PC-07-0024, Day 6, data exclsn): 0.00%
Top (%) ([5]; PC-07-0024, Day 6, data exclsn): 30.34%
